Source: PubChem BioAssay AID1963851 (Molecular Pharmacology Branch, DTP, NCI, 2024)
Where “and” joins values, the source holds several entries; their conditions need not be identical. Equal values may be shown once.

Test system: 188146-221-R-J1-PDC complex spheroid viability
Experiment: Anticancer human tumor 188146-221-R-J1-PDC patient-derived colon adenocarcinoma cell line growth inhibition [POLQ]
Settings: for viability, T/C: stronger effect = lower value; for IC50: curve of compound
Procedure: Multicellular complex tumor spheroid response to Polymerase (POL) inhibitors (novobiocin, ART-558, RP6685) in combination with a variety of drugs and investigational agents in selected tumor cell lines
The POL inhibitors (novobiocin, ART-558, and RP6685) were evaluated both individually and in combination with standard of care and investigational anticancer small molecules within a complex spheroid model of solid tumors. . Complex spheroids include a stromal component modeled by human endothelial cells (HUVEC) and fibroblasts modeled by human mesenchymal stem cells (MSCs). The concentration ranges selected for each drug and investigational agent were based upon clinically achievable concentrations if the clinical Cmax of the agent was known.
Compounds. The drugs and investigational agents: novobiocin (NSC847541), ART-558 (NSC835418), RP-6685 (NSC848927), peposertib (NSC802822), ceralasertib (NSC780249), elimusertib (NSC800525), camonsertib (NSC841442), AZD-1390 (NSC803789), olaparib (NSC753686), talazoparib (NSC767125), rucaparib (NSC756644), sotorasib (NSC818433), MRTX-1133 (NSC836407), SN-38 (NSC673596), topotecan (NSC609699), epotoside (NSC141540), doxorubicin (NSC123127), gemcitabine (NSC613327), 5-fluorouracil (NSC19893), paclitaxel (NSC125973), vemurafenib (NSC761431), MSA-2 (NSC828583), SN-011 (NSC837082), adavosertib (NSC754352), prexasertib (NSC758257), carboplatin (NSC241240) and oxaliplatin (NSC266046), were obtained from the National Cancer Institute (NCI) Developmental Therapeutics Program Chemical Repository (21). The FDA-approved anticancer drug set is available from the Developmental Therapeutics Program at https://dtp.cancer.gov/organization/dscb/obtaining/. […] The stock solutions were prepared in dimethyl sulfoxide (DMSO, Sigma-Aldrich, St. Louis, MO, cat. D2650), except for the platinum compounds which were prepared in saline (Quality Biological, Gaithersburg, MD, cat. 114-055-101), at 800-fold the tested concentration and stored at -70 degrees C prior to their use. All drugs and investigational agents were tested over a range starting from a high concentration at or near the clinical Cmax and decreasing in half-log increments. If the clinical Cmax for an agent had not been determined, the highest concentration tested was 10 microM, except for SN-38, which was tested at a high concentration of 1 microM.
Cell Culture. All cells were maintained in an incubator at 37 degrees C and 5% CO2 with 95% humidity. The PDC lines were cultured according to standard operating procedures established by the NCI PDMR (https://pdmr.cancer.gov). Table 3 of the manuscript, lists the cell lines along with the number of the three cell types plated to form the mct-spheroids and media for tumor cell growth. After thawing, all PDC lines, except 997537-175-T-J1-PDC and 415267-285-R-J2-PDC, were cultured in Matrigel-coated flasks prepared with a working solution of 1X Ham's F-12 nutrient mix, without supplementation (Thermo Fisher Scientific, cat. 11765054), 100 U/mL penicillin-streptomycin (Thermo Fisher Scientific, cat. 15140122), and 2.5% Matrigel (Corning Inc., Corning, NY, cat. 354248) for the first three passages. The two PDC lines 997537-175-T-J1-PDC and 415267-285-R-J2-PDC were cultured on uncoated flasks. The 857933-349-R-J2-PDC line was cultured in 6C/Colon 1B media containing advanced DMEM/F-12 (Thermo Fisher Scientific, cat. 12634028), 10 mM HEPES (Thermo Fisher Scientific, cat. 15630080), 1X GlutaMAX supplement (Thermo Fisher Scientific, cat. 35050061), 0.1 mg/mL primocin (InvivoGen, San Diego, CA, cat. ant-pm-2), 10% defined fetal bovine serum, heat inactivated (HyClone Laboratories Inc., Logan, UT, cat. SH30070.03HI), 50% L-WRN conditioned media (ATCC, cat. CRL-3276), 1.25 mM N-Acetyl-L-cysteine (Sigma-Aldrich, cat. A9165), 10 mM nicotinamide (Sigma-Aldrich, cat. N0636), 1X B-27 supplement (Thermo Fisher Scientific, cat. 17504044), 1X N-2 supplement (Thermo Fisher Scientific, cat. […]
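Note: spheroids exposed to compounds for seven days.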
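Throughout, for viability, T/C: 100% = DMSO vehicle control viability.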

## COc1cc(C2c3cc4c(cc3C(OC3OC5COC(C)OC5C(O)C3O)C3COC(=O)C23)OCO4)cc(OC)c1O (stereo not drawn)
Compound 0.0316 µM
  viability, T/C: 115% and 92.4% and 98.7%
Compound 0.1 µM
  viability, T/C: 102% and 84.8% and 107%
Compound 0.316 µM
  viability, T/C: 77% and 71.8% and 65.6%
Compound 1 µM
  viability, T/C: 51.8% and 43.3% and 50.5%
Compound 3.16 µM
  viability, T/C: 30.1% and 27.2% and 24.4%
Compound 10 µM
  viability, T/C: 23.1% and 24.8% and 25%
  IC50: 1030 nM and 758 nM and 789 nM

## CC1COCCN1c1cc(C2(O)CC3CCC(C2)O3)c2cnn(-c3ccn[nH]3)c2n1 (stereo not drawn)
Compound 0.0316 µM
  viability, T/C: 92% and 93.4% and 87%
Compound 0.1 µM
  viability, T/C: 84.8% and 75% and 73.3%
Compound 0.316 µM
  viability, T/C: 44.9% and 50.6% and 53.1%
Compound 1 µM
  viability, T/C: 28.2% and 28.1% and 26%
Compound 3.16 µM
  viability, T/C: 21.8% and 18.4% and 19.3%
Compound 10 µM
  viability, T/C: 6.59% and 6.67% and 8.27%
  IC50: 321 nM and 329 nM and 342 nM

## CCc1cc2c(N3CCc4c(cc(Cn5ccnc5)cc4-c4cn(C)nc4C(F)(F)F)C3=O)ccnc2c(OC)n1
Compound 0.0316 µM
  viability, T/C: 103% and 102% and 97.4%
Compound 0.1 µM
  viability, T/C: 100% and 84.5% and 101%
Compound 0.316 µM
  viability, T/C: 100% and 99.4% and 92.2%
Compound 1 µM
  viability, T/C: 92.7% and 93.4% and 98.2%
Compound 3.16 µM
  viability, T/C: 69.5% and 74% and 71.6%
Compound 10 µM
  viability, T/C: 48.1% and 54.2% and 57.5%
  IC50: 9010 nM and > 10000 nM

## O=c1[nH]cc(F)c(=O)[nH]1
Compound 0.0316 µM
  viability, T/C: 102% and 101% and 107%
Compound 0.1 µM
  viability, T/C: 95.6% and 97.8% and 103%
Compound 0.316 µM
  viability, T/C: 66.6% and 74% and 69.3%
Compound 1 µM
  viability, T/C: 59.6% and 61.5% and 58.3%
Compound 3.16 µM
  viability, T/C: 44.9% and 51.3% and 45.6%
Compound 10 µM
  viability, T/C: 31.6% and 43.5% and 31.8%
  IC50: 1830 nM and 3020 nM and 1680 nM
